Test results as given in patent publication US20020187514A1 (priority 1999, published 2002).
Counter-ions that a name gives are not always drawn.

Experiments:
[1] = target: Adenosine Transport (cs + es); experiment: Adenosine Transport (cs + es) (Human); [3H]-Adenosine; assay type: biochemical; conditions: reference compound, QA/QC; read-out: Ref Kj
[2] = target: Glutamate, NMDA Agonist Site; experiment: Glutamate, NMDA Agonist Site; [3H]CGP 39653; assay type: binding; conditions: reference compound, QA/QC; read-out: Ref Kj
Oxytocin = assay type: binding; conditions: read-out: Ref Kj
Thromboxane A2 = target: T1, Thromboxane A2 (Homo sapiens, UniProt P21731); experiment: Thromboxane A2 (Human); [3H]SQ 29,548; assay type: binding; conditions: reference compound, QA/QC; read-out: Ref Kj
T1 construct: from human cell lines; endogenous in cells
T1 sequence (P21731 whole entry): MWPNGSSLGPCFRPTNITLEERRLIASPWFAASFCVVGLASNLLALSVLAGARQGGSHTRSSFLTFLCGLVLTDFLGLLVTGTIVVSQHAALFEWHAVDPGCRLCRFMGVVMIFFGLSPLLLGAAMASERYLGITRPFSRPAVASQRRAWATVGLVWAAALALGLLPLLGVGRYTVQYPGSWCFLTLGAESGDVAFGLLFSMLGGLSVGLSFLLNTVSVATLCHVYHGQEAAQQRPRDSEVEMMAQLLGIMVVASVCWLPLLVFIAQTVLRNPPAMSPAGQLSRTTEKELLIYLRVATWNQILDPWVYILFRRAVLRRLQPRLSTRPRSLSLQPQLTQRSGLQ

Sigma 1 = target: T2, Sigma 1 (Cavia porcellus, UniProt Q60492); experiment: Sigma 1; [3H]-(+)-Pentazocine; assay type: binding, guinea pig; conditions: reference compound, QA/QC; read-out: Ref Kj
T2 construct: Fresh guinea pig whole brain was obtained following decapitation; from tissue; host or cells: guinea pig whole brain membranes
T2 sequence (Q60492 whole entry): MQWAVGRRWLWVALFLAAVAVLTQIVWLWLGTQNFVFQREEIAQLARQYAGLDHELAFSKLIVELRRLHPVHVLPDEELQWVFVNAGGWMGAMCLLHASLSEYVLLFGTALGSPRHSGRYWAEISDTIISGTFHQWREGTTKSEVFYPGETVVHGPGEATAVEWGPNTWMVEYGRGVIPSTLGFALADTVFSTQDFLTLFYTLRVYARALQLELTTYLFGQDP

[3] = target: T3, Monoamine Oxidase A, Peripheral (Rattus norvegicus, UniProt P21396); experiment: biochemical; conditions: reference compound, QA/QC; read-out: Ref Kj
T3 construct: no other source notation after assay name denotes animal cell or animal tissue source; from tissue
T3 sequence (P21396 whole entry, looked up): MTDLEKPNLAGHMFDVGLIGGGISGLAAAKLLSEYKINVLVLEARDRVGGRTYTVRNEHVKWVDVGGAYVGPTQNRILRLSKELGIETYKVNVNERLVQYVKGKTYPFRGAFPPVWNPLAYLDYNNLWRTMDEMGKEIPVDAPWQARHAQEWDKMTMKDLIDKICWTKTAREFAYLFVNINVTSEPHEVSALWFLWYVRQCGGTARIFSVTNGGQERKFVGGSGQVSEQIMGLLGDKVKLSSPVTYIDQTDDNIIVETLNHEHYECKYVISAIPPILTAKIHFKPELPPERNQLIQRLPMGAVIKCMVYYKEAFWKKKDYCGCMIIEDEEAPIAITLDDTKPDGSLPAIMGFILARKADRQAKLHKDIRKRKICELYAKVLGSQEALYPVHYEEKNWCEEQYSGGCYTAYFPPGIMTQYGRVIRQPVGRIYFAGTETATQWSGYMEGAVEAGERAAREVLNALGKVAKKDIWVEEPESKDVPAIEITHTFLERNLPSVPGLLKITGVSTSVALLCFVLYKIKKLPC

[4] = target: Somatostatin, Non-selective; experiment: Somatostatin, Non-selective; [125]-Somatostatin-14 (Tyr11); assay type: binding; conditions: reference compound, QA/QC; read-out: Ref Kj
Elastase = target: T4, Elastase (Homo sapiens, UniProt P08246); experiment: Elastase (Human); substrate MeO-Suc-Ala-Ala-Pro-Val-pNA; assay type: biochemical; conditions: reference compound, QA/QC; read-out: Ref Kj
T4 construct: from human cell lines; endogenous in cells
T4 sequence (P08246 30-267): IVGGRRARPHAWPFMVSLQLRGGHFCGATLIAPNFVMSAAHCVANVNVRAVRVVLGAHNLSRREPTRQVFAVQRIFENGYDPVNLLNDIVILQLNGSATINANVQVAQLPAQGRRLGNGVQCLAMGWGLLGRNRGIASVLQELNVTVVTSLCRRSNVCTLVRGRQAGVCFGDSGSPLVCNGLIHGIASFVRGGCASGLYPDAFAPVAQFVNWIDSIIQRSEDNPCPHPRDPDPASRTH

Serotonin, 5HT3 = Serotonin, 5HT3 (Mus musculus, UniProt P23979); experiment: biochemical; assay type: binding; conditions: radioligand, assay parameter; read-out: KD of the 5HT3 receptor for the radioligand
Chain of Serotonin, 5HT3 (P23979 24-489): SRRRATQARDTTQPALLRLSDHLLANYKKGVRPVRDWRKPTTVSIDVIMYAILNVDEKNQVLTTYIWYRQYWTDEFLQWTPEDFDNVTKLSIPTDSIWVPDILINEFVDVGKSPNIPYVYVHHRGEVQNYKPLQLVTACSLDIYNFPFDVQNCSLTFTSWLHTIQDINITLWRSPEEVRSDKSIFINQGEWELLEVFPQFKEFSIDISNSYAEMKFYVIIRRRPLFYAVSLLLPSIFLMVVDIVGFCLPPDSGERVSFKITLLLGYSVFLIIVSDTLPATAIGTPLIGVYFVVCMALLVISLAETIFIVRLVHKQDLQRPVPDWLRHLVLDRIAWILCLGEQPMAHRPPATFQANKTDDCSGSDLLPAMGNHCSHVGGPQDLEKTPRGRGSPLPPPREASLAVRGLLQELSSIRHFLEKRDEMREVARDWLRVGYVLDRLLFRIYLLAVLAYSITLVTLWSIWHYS

Dopamine Transporter = Dopamine Transporter (Cavia porcellus, UniProt H0WCX4); experiment: biochemical; assay type: binding, Guinea Pig; conditions: read-out: Kd for the receptor
Chain of Dopamine Transporter (H0WCX4 1-619): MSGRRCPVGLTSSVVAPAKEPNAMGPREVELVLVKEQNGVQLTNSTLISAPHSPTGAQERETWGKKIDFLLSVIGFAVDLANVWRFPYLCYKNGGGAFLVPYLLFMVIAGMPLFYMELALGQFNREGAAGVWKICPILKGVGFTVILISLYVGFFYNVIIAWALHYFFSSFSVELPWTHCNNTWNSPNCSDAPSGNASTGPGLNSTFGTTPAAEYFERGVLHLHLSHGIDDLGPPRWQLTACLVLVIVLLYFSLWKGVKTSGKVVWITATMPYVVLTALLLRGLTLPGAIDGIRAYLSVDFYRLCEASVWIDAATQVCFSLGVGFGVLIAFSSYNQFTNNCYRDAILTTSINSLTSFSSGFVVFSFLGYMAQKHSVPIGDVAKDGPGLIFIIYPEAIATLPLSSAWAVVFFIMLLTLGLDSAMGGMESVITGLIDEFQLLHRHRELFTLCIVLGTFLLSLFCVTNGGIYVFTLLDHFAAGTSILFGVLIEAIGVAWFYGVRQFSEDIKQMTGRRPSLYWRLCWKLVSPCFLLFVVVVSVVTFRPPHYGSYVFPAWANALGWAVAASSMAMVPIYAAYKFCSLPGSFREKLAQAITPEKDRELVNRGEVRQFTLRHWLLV

[5] = target: Choline Acetyltransferase; experiment: Choline Acetyltransferase; substrate [14C]Acetyl Coenzyme; assay type: biochemical; conditions: reference compound, QA/QC; read-out: Ref Kj
[6] = target: Thyrotropin Releasing Hormone, TRH; experiment: Thyrotropin Releasing Hormone, TRH; [3H]-(3MeHis2)TRH; assay type: binding; conditions: reference compound, QA/QC; read-out: Ref Kj
[7] = target: Glutamate, NMDA, Phencyclidine Site; experiment: Glutamate, NMDA, Phencyclidine Site; [3H]TCP; assay type: binding; conditions: reference compound, QA/QC; read-out: Ref Kj
Glutamate, MK-801 Site = experiment: Glutamate, MK-801 Site; [3H]MK-801; assay type: binding; conditions: reference compound, QA/QC; read-out: Ref Kj
Vasopressin, V1A = Vasopressin, V1A (Homo sapiens, UniProt P37288); experiment: Vasopressin, V1A (Human); [125I]-Via Antagonist; assay type: binding; conditions: read-out: Ref Kj
Chain of Vasopressin, V1A (P37288 whole entry): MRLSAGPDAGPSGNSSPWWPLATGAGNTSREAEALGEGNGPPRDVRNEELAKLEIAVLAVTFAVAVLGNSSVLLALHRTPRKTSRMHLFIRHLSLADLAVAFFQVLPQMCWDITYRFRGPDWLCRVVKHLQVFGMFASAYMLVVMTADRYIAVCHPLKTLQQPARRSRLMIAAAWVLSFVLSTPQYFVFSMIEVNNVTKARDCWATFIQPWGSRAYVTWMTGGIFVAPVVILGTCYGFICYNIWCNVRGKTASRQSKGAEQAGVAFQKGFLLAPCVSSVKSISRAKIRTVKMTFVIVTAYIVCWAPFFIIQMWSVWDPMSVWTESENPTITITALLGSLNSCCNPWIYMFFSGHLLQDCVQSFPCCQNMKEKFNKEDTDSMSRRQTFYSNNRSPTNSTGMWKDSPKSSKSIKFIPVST

[8] = system: Protein Tyrosine Phosphatase, PTP-Cell; experiment: Protein Tyrosine Phosphatase, PTP-Cell (Human); substrate pNPP; assay type: biochemical; conditions: read-out: Ref Kj
[9] = target: Protein Tyrosine Phosphatase, PTP-B; experiment: Protein Tyrosine Phosphatase, PTP-B (Human); substrate pNPP; assay type: biochemical; conditions: read-out: Ref Kj
[10] = target: T5, Protein Tyrosine Phosphatase, PTP-LAR-D1 (Homo sapiens, UniProt P10586); experiment: Protein Tyrosine Phosphatase, PTP-LAR-D1 (Human); substrate pNPP; assay type: biochemical; conditions: read-out: Ref Kj
T5 construct: PTP-LAR-D1
T5 sequence (P10586 1352-1607): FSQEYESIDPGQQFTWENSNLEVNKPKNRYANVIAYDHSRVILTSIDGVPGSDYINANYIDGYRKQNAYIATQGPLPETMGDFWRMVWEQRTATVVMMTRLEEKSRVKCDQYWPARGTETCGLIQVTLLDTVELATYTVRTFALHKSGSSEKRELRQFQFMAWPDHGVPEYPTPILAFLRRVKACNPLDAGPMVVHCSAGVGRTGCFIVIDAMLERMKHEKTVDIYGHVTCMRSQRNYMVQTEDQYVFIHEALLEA

[11] = target: Protein Tyrosine Phosphatase, PTP-CD45 (Homo sapiens, UniProt P08575); experiment: Protein Tyrosine Phosphatase, PTP-CD45 (Human); substrate pNPP; assay type: biochemical; conditions: read-out: Ref Kj
Chain of Protein Tyrosine Phosphatase, PTP-CD45 (P08575 26-1306): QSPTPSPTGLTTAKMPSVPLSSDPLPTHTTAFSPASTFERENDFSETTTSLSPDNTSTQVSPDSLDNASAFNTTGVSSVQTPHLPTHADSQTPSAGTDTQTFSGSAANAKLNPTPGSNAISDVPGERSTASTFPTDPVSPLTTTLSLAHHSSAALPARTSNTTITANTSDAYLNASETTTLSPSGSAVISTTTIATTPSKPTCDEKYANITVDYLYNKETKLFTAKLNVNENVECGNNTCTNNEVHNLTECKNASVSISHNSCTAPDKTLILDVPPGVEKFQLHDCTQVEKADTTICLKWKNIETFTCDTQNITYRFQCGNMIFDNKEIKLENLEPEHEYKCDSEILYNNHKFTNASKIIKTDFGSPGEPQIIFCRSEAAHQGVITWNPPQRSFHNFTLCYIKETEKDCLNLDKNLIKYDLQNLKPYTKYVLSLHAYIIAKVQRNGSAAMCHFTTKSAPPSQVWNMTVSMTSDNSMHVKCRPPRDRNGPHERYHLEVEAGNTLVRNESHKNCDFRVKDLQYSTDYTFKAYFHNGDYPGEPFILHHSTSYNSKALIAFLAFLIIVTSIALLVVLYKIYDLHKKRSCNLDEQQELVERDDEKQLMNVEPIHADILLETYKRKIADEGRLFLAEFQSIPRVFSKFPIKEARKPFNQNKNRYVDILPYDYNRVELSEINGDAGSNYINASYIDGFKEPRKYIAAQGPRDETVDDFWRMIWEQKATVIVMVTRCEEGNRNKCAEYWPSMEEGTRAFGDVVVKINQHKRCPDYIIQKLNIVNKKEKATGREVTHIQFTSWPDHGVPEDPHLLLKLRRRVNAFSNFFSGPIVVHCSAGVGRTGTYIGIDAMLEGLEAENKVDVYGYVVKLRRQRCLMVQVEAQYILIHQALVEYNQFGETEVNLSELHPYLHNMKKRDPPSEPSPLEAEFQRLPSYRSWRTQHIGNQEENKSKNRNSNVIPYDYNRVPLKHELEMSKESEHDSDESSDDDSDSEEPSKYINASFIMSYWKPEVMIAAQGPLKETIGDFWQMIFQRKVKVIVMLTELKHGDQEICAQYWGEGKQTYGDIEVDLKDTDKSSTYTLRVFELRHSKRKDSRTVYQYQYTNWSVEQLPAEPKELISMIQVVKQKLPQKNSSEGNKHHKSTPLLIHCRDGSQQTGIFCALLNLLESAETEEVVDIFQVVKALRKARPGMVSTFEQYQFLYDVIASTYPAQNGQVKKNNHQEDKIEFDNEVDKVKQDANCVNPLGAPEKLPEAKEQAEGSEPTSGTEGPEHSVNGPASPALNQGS

[12] = target: Protein Phosphatase, PP2B (Calcineurin); experiment: Protein Phosphatase, PP2B (Calcineurin); substrate pNPP; assay type: biochemical; conditions: read-out: Ref Kj
Angiotensin II, AT2 = assay type: binding; conditions: read-out: Ref Kj
[13] = target: Cholecystokinin, CCK2 (CCKB); experiment: Cholecystokinin, CCK2 (CCKB); [125I]CCK-8; assay type: binding; conditions: read-out: Ref Kj
[14] = target: Cholecystokinin, CCK1 (CCKA); experiment: Cholecystokinin, CCK1 (CCKA); [125I]CCK-8; assay type: binding; conditions: read-out: Ref Kj
[15] = target: Protein Phosphatase, PP2A (Homo sapiens, UniProt P67775); experiment: Protein Phosphatase, PP2A (Human); substrate DiFMUP; assay type: biochemical; conditions: reference compound, QA/QC; read-out: Ref Kj
Chain of Protein Phosphatase, PP2A (P67775 whole entry): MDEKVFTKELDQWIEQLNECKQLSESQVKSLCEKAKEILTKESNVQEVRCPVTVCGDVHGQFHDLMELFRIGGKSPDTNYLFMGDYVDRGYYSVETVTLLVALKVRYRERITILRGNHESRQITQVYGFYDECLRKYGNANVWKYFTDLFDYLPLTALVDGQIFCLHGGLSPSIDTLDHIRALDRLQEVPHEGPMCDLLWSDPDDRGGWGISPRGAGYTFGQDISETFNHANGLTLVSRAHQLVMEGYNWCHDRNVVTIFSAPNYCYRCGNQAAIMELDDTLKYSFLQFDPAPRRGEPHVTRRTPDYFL

[16] = target: Potassium Channel, Ca2+ Act., VS; experiment: Potassium Channel, Ca2+ Act., VS; [125I]Charybdotoxin; assay type: binding; conditions: reference compound, QA/QC; read-out: Ref Kj
Neurokinin, NK1 = assay type: binding; conditions: read-out: Ref Kj
[17] = target: Vasoactive Intestine Peptide, Non-selective; assay type: binding; conditions: read-out: Ref Kj
Calcium Channel, Type N = assay type: binding; conditions: read-out: Ref Kj

O=[N+]([O-])c1ccc(CSc2ncnc3c2ncn3[C@@H]2O[C@H](CO)[C@@H](O)[C@H]2O)cc1 [NBTI]
Ki [1]: 0.331 nM

CN[C@H](CC(=O)O)C(=O)O [NMDA]
Ki [2]: 13100 nM

CCCCC[C@@H](O)/C=C/[C@H]1C[C@H]2C[C@@H]([C@@H]1C/C=C\CCCC(=O)O)C2(C)C [Pinane-thromboxane A2]
Ki (Thromboxane A2): 30.3 nM

CCCN1CCC[C@H](c2cccc(O)c2)C1 [R(+)-3-PPP HCl]
Ki (Sigma 1): 1.27 nM

NCCNC(=O)c1ncsc1-c1cccc(F)c1 [Ro 41-1049 HCl]
Ki [3]: 1.08 nM

C[C@H](N)C(=O)NCC(=O)N[C@H]1CSSC[C@@H](C(=O)O)NC(=O)[C@H](CO)NC(=O)[C@H]([C@@H](C)O)NC(=O)[C@H](Cc2ccccc2)NC(=O)[C@H]([C@@H](C)O)NC(=O)[C@H](CCCCN)NC(=O)[C@H](Cc2c[nH]c3ccccc23)NC(=O)[C@H](Cc2ccccc2)NC(=O)[C@H](Cc2ccccc2)NC(=O)[C@H](CC(N)=O)NC(=O)[C@H](CCCCN)NC1=O [Somatostatin]
Ki [4]: 0.768 nM

C[C@H]1[C@H](C)CC[C@]2(C(=O)O)CC[C@]3(C)C(=CC[C@@H]4[C@@]5(C)CC[C@H](O)C(C)(C)[C@@H]5CC[C@]43C)[C@H]12 [Ursolic Acid]
Ki (Elastase): 2320 nM

Cc1[nH]cnc1CCC(=O)c1cn(C)c2ccccc12 [[^3H]-GR65630]
Kd (Serotonin, 5HT3): 0.35 nM

COC(=O)[C@H]1[C@@H](c2ccc(F)cc2)C[C@@H]2CC[C@H]1N2C [[^3H]-WIN 35-428]
Kd (Dopamine Transporter): 28 nM

C[N+](C)(C)CCC(=O)c1ccc2ccccc2c1 [beta-NETA]
Ki [5]: 425 nM

(3MeHis2) TRH
Ki [6]: 175 nM

(+)-MK-801 HMaleate
Ki [7]: 8.96 nM
Ki (Glutamate, MK-801 Site): 2.33 nM

(Phe)(Me)2A6,8,L9AVP
Ki (Vasopressin, V1A): 0.128 nM

Ammonium Molybdate
Ki [8]: 41.3 nM
Ki [9]: 313 nM
Ki [10]: 117 nM
Ki [11]: 30.9 nM
Ki [12]: 90500 nM

Angiotensin II (Human)
Ki (Angiotensin II, AT2): 0.578 nM

CCK-8 (sulfated)
Ki [13]: 0.479 nM
Ki [14]: 0.0228 nM

Calyculin
Ki [15]: 0.722 nM

Charybdotoxin
Ki [16]: 0.204 nM

Substance P
Ki (Neurokinin, NK1): 13 nM

VIP
Ki [17]: 1.9 nM

w-Conotoxin GVIA
Ki (Calcium Channel, Type N): 0.0124 nM
